Results from ChEMBL document CHEMBL1201862, “PubChem BioAssay data set” (2004).
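Briefly, cells in 96-well plates were exposed to five compound concentrations for 48 h, and endpoints were estimated by linear interpolation. GI50 = concentration required for 50% inhibition of growth.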 Activity calls are given as the source filed them. Cut-off read from the data, not from the text of the source: active = GI50 up to about 1.1 µM and inactive = higher.

Key:
Test in all cases: NCI tumour cell line growth inhibition, 48 h
786-0 = tested on: 786-0
COLO 205 = tested on: COLO 205
HCT-15 = tested on: HCT-15
HT-29 = tested on: HT-29
Hs-578T = tested on: Hs-578T
IGROV-1 = tested on: IGROV-1
KM12 = tested on: KM12
M14 = tested on: M14
MDA-N = tested on: MDA-N
OVCAR-3 = tested on: OVCAR-3
SF-268 = tested on: SF-268
SF-295 = tested on: SF-295
SF-539 = tested on: SF-539
SNB-75 = tested on: SNB-75
TK-10 = tested on: TK-10
U-251 = tested on: U-251
UACC-257 = tested on: UACC-257
UACC-62 = tested on: UACC-62
DMS-273 = tested on: DMS-273

Row | Structure (SMILES) | GI50 (786-0) | GI50 (COLO 205) | GI50 (HCT-15) | GI50 (HT-29) | GI50 (Hs-578T) | GI50 (IGROV-1) | GI50 (KM12) | GI50 (M14) | GI50 (MDA-N) | GI50 (OVCAR-3) | GI50 (SF-268) | GI50 (SF-295) | GI50 (SF-539) | GI50 (SNB-75) | GI50 (TK-10) | GI50 (U-251) | GI50 (UACC-257) | GI50 (UACC-62) | GI50 (DMS-273)
1 | Nc1nc(N)c(Cn2ccnc2)c(O)n1 | > 100 µM (inactive) | > 100 µM (inactive) | > 100 µM | > 100 µM (inactive) | > 100 µM (inactive) | > 100 µM (inactive) | > 100 µM (inactive) | > 100 µM (inactive) | > 100 µM (inactive) | > 100 µM (inactive) | > 100 µM (inactive) | > 100 µM (inactive) | > 100 µM (inactive) | > 100 µM (inactive) | > 100 µM (inactive) | > 100 µM (inactive) | > 100 µM (inactive) | > 100 µM (inactive) | –
2 | N=C(N)NS(=O)(=O)c1ccc(NC(=O)c2ccc3nc4ccccc4c(Nc4ccc(S(=O)(=O)N=C(N)N)cc4)c3c2)cc1 | > 100 µM (inactive) | > 100 µM (inactive) | > 100 µM | > 100 µM (inactive) | > 100 µM (inactive) | > 100 µM (inactive) | > 100 µM (inactive) | > 100 µM (inactive) | > 100 µM (inactive) | > 100 µM (inactive) | > 100 µM (inactive) | > 100 µM (inactive) | > 100 µM (inactive) | > 100 µM (inactive) | > 100 µM (inactive) | > 100 µM (inactive) | > 100 µM (inactive) | 30.1 µM (inactive) | –
3 | CC(C)(C)c1cc(C(C)(C)C)c2c(c1O)OC(=O)CS2 | 6.07 µM (inactive) | 2.99 µM (inactive) | 3.66 µM | 4.34 µM (inactive) | 2.84 µM (inactive) | 7.1 µM (inactive) | 4.44 µM (inactive) | 7.1 µM (inactive) | 3.67 µM (inactive) | 3.69 µM (inactive) | 5.51 µM (inactive) | 4.26 µM (inactive) | 3.72 µM (inactive) | 1.15 µM (inactive) | 3.88 µM (inactive) | 4.78 µM (inactive) | 13.9 µM (inactive) | 2.2 µM (inactive) | –
4 | Cc1nc2ccccc2nc1CC(=O)C(=O)Nc1ccc(Cl)cc1Cl | > 100 µM (inactive) | > 100 µM (inactive) | > 100 µM | – | – | > 100 µM (inactive) | > 100 µM (inactive) | > 100 µM (inactive) | – | > 100 µM (inactive) | > 100 µM (inactive) | > 100 µM (inactive) | > 100 µM (inactive) | > 100 µM (inactive) | > 100 µM (inactive) | > 100 µM (inactive) | > 100 µM (inactive) | > 100 µM (inactive) | > 100 µM (inactive)
5 | CC1=CC(O)C(C(O)(C(F)(F)F)C(F)(F)F)C(C)(C)C1 (stereo not drawn) | < 0.001 µM (active) | > 10 µM (inactive) | > 10 µM | > 10 µM (inactive) | > 10 µM (inactive) | 0.188 µM (active) | > 10 µM (inactive) | < 0.001 µM (active) | > 10 µM (inactive) | > 10 µM (inactive) | > 10 µM (inactive) | > 10 µM (inactive) | > 10 µM (inactive) | > 10 µM (inactive) | > 10 µM (inactive) | > 10 µM (inactive) | > 10 µM (inactive) | > 10 µM (inactive) | –
6 | Cc1cc(O)c(C(O)c2ccccn2)cc1O (stereo not drawn) | 19.1 µM (inactive) | 10 µM (inactive) | 18.2 µM | 21.4 µM (inactive) | 45.8 µM (inactive) | 35.8 µM (inactive) | 24.5 µM (inactive) | 20.2 µM (inactive) | 18.7 µM (inactive) | 15 µM (inactive) | 75.7 µM (inactive) | > 100 µM (inactive) | 38.8 µM (inactive) | 14.7 µM (inactive) | 16.6 µM (inactive) | 36.7 µM (inactive) | > 10 µM (inactive) | 14.5 µM (inactive) | –
7 | O/N=C1/C(=C/c2ccc(OCc3ccccc3)cc2)CCCC1C(NO)c1ccc(OCc2ccccc2)cc1 (stereo not drawn) | 18.5 µM (inactive) | 16.9 µM (inactive) | 6.24 µM | 5.24 µM (inactive) | – | > 100 µM (inactive) | 24.2 µM (inactive) | 4.98 µM (inactive) | – | 14.2 µM (inactive) | – | – | 24.9 µM (inactive) | 34 µM (inactive) | – | 10.5 µM (inactive) | 10 µM (inactive) | – | 13 µM (inactive)
8 | Nc1c(-c2nc3ccccc3[nH]2)sc(=S)n1-c1ccccc1 | 61.2 µM (inactive) | > 100 µM (inactive) | > 100 µM | 92.9 µM (inactive) | – | > 100 µM (inactive) | > 100 µM (inactive) | > 100 µM (inactive) | – | 51.2 µM (inactive) | > 100 µM (inactive) | 72.8 µM (inactive) | > 100 µM (inactive) | 44.8 µM (inactive) | – | 76.7 µM (inactive) | > 100 µM (inactive) | 13.5 µM (inactive) | > 100 µM (inactive)
9 | Cc1cc2nc3c(=O)[nH]c(=O)nc-3n(CC(O)C(O)C(O)CO)c2cc1N (stereo not drawn) | > 100 µM (inactive) | > 100 µM (inactive) | > 100 µM | > 100 µM (inactive) | – | > 100 µM (inactive) | > 100 µM (inactive) | > 100 µM (inactive) | – | > 100 µM (inactive) | – | > 100 µM (inactive) | > 100 µM (inactive) | > 100 µM (inactive) | > 100 µM (inactive) | – | – | > 100 µM (inactive) | > 100 µM (inactive)
10 | C=C1C(OC)=C(OC)C(=O)c2[nH]c3c(OC)cc([N+](=O)[O-])cc3c21 | 37.8 µM (inactive) | > 100 µM (inactive) | > 100 µM | > 100 µM (inactive) | > 100 µM (inactive) | > 100 µM (inactive) | > 100 µM (inactive) | > 100 µM (inactive) | > 100 µM (inactive) | > 100 µM (inactive) | > 100 µM (inactive) | > 100 µM (inactive) | > 100 µM (inactive) | 39.1 µM (inactive) | > 100 µM (inactive) | > 100 µM (inactive) | > 100 µM (inactive) | > 100 µM (inactive) | –
11 | COc1cc(OC)nc(-n2c(N)c(C#N)c3ccc([N+](=O)[O-])cc3c2=O)n1 | > 100 µM (inactive) | > 100 µM (inactive) | > 100 µM | > 100 µM (inactive) | > 100 µM (inactive) | 79.3 µM (inactive) | > 100 µM (inactive) | > 100 µM (inactive) | > 100 µM (inactive) | > 100 µM (inactive) | > 100 µM (inactive) | > 100 µM (inactive) | > 100 µM (inactive) | > 100 µM (inactive) | > 100 µM (inactive) | 92.3 µM (inactive) | > 100 µM (inactive) | > 100 µM (inactive) | –
12 | Cc1c(-c2cnccn2)ssc1=S [OLTIPRAZ] | 40.4 µM (inactive) | > 100 µM (inactive) | 62.8 µM | > 100 µM (inactive) | 34.5 µM (inactive) | > 100 µM (inactive) | > 80.9 µM (inactive) | > 100 µM (inactive) | > 100 µM (inactive) | 99.3 µM (inactive) | 56.2 µM (inactive) | 57.4 µM (inactive) | 63.1 µM (inactive) | 18.5 µM (inactive) | 62.7 µM (inactive) | 46 µM (inactive) | 24.5 µM (inactive) | 76.2 µM (inactive) | –
